≈ marks a conversion by molar mass, not a printed value.
Columns and labels:
[1] = system: KP13368; experiment: MIC, microdilution broth method; assay type: cell-based
[2] = system: AYE; experiment: MIC, microdilution broth method; assay type: cell-based, Acinetobacter baumannii
[3] = system: EC12923; experiment: MIC, microdilution broth method; assay type: cell-based
[4] = system: MSSA9144; experiment: MIC, microdilution broth method; assay type: cell-based, Staphylococcus aureus
[5] = system: EMRSA16; experiment: MIC, microdilution broth method; assay type: cell-based, Staphylococcus aureus; settings: for MIC, EMRSA16: in µg/mL
[6] = system: VRE12201; experiment: MIC, microdilution broth method; assay type: cell-based, Enterococcus faecalis
[7] = system: VRE12204; experiment: MIC, microdilution broth method; assay type: cell-based, Enterococcus faecium; settings: ESKAPE panel, Gram-positive; in µg/mL
[8] = system: extended bacterial panel; experiment: MIC against an extended bacterial panel (Table 15); assay type: cell-based
[9] = ESKAPE panel, Gram-negative, in µg/mL
[10] = ESKAPE panel, Gram-positive, in µg/mL

## Cc1cc(C)nc(N[C@@H]2CCN(c3c(F)cc4c(=O)c(C(=O)O)cn5c4c3OC[C@@H]5C)C2)n1 [KSN-BL7, (S)-10-((R)-3-((4,6-dimethylpyrimidin-2-yl)amino)pyrrolidin-1-yl)-9-fluoro-3-methyl-7-oxo-2,3-dihydro-7H-[1,4]oxazino[2,3,4-ij]quinoline-6-carboxylic acid]
[1]; ESKAPE panel, Gram-negative
  MIC, KP13368: 16 µg/mL (≈ 35.3 µM)
[1]; Klebsiella pneumoniae
  MIC: 16 µg/mL (≈ 35.3 µM)
[2]; Acinetobacter baumannii
  MIC: 8 µg/mL (≈ 17.6 µM)
[2]; [9]
  MIC, AYE: 8
[3]; [9]
  MIC, EC12923: 1
[3]; Escherichia coli
  MIC: 1 µg/mL (≈ 2.21 µM)
[4]; [10]
  MIC, MSSA9144: ≤0.0039
[4]; Staphylococcus aureus
  MIC: ≤ 0.0039 µg/mL
[5]; EMRSA16 (Table 16, role of the terminal pyrimidine ring)
  MIC, EMRSA16: 0.25-0.5
[5]; ESKAPE panel, Gram-positive
  MIC, EMRSA16: 0.25
[5]; Staphylococcus aureus
  MIC: 0.25 µg/mL (≈ 0.551 µM)
[6]; [10]
  MIC, VRE12201: 0.0313
[6]; Enterococcus faecalis
  MIC: 0.03 µg/mL (≈ 0.0662 µM)
[7]
  MIC, VRE12204: 1
[8]; Enterococcus faecalis, ATCC29212, Enterococcus faecalis ATCC 29212
  MIC: 0.25 µg/mL (≈ 0.551 µM)
[8]; Enterococcus faecalis, ATCC51299, Enterococcus faecalis ATCC 51299, VanB
  MIC: 0.125 µg/mL (≈ 0.276 µM)
[8]; Enterococcus faecalis, ATCC51575, Enterococcus faecalis ATCC 51575, VanB
  MIC: 0.25 µg/mL (≈ 0.551 µM)
[8]; Enterococcus faecalis, ATCC700802, Enterococcus faecalis ATCC 700802, VanB
  MIC: 0.125 µg/mL (≈ 0.276 µM)
[8]; Enterococcus faecalis, CCUG47775, Enterococcus faecalis CCUG 47775, Van A
  MIC: 0.5 µg/mL (≈ 1.1 µM)
[8]; Enterococcus faecium, CCUG59167, Enterococcus faecium TUH44-29, CCUG 59167, Van A
  MIC: 1 µg/mL (≈ 2.21 µM)
[8]; Enterococcus gallinarum, ATCC 49608 / GALLINARUM, Enterococcus gallinarum ATCC 49608, VanC
  MIC: 0.25 µg/mL (≈ 0.551 µM)
[8]; Staphylococcus aureus, ATCC10390, Staphylococcus aureus ATCC 10390
  MIC: ≤ 0.0312 µg/mL
[8]; Staphylococcus aureus, ATCC 13709 / MRSA, Staphylococcus aureus ATCC 13709, MRSA
  MIC: ≤ 0.0312 µg/mL
[8]; Staphylococcus aureus, ATCC19636, Staphylococcus aureus Smith, ATCC 19636
  MIC: ≤ 0.0312 µg/mL
[8]; Staphylococcus aureus, ATCC27660, Staphylococcus aureus ATCC 27660
  MIC: ≤ 0.0312 µg/mL
[8]; Staphylococcus aureus, ATCC29213, Staphylococcus aureus ATCC 29213
  MIC: ≤ 0.0312 µg/mL
[8]; Staphylococcus aureus, ATCC29213, Staphylococcus aureus ATCC 29213 with 50% human serum
  MIC: 1 µg/mL (≈ 2.21 µM)
[8]; Staphylococcus aureus, ATCC 33591 / MRSA, Staphylococcus aureus ATCC 33591, MRSA
  MIC: ≤ 0.0312 µg/mL
[8]; Staphylococcus aureus, ATCC 33592 / MRSA, Staphylococcus aureus ATCC 33592, MRSA
  MIC: ≤ 0.0312 µg/mL
[8]; Staphylococcus aureus, ATCC33594, Staphylococcus aureus ATCC 33594
  MIC: ≤ 0.0312 µg/mL
[8]; Staphylococcus aureus, ATCC49230, Staphylococcus aureus ATCC 49230
  MIC: ≤ 0.0312 µg/mL
[8]; Staphylococcus aureus, ATCC 700699 / MRSA / VISA, Staphylococcus aureus Mu50, ATCC 700699, MRSA/VISA
  MIC: 2 µg/mL (≈ 4.41 µM)
[8]; Staphylococcus aureus, BAA-1556 / MRSA / USA300, Staphylococcus aureus FPR3757, BAA-1556, USA300 MRSA
  MIC: 0.5 µg/mL (≈ 1.1 µM)
[8]; Staphylococcus aureus, BAA-1707 / MRSA / USA400, Staphylococcus aureus MW2, BAA-1707, USA400 MRSA
  MIC: ≤ 0.0312 µg/mL
[8]; Staphylococcus aureus, BAA-1717 / MRSA / USA300, Staphylococcus aureus TCH1516, BAA-1717, USA300 MRSA
  MIC: ≤ 0.0312 µg/mL
[8]; Staphylococcus aureus, MRSA / NRS 3 / VISA, Staphylococcus aureus NRS3, MRSA/VISA
  MIC: 0.5 µg/mL (≈ 1.1 µM)
[8]; Staphylococcus aureus, MRSA / NRS 17 / VISA, Staphylococcus aureus NRS17, MRSA/VISA
  MIC: 1 µg/mL (≈ 2.21 µM)
[8]; Staphylococcus aureus, MRSA / NRS 22 / USA600 / VISA, Staphylococcus aureus NRS22, USA600 MRSA/VISA
  MIC: 4 µg/mL (≈ 8.82 µM)
[8]; Staphylococcus aureus, MRSA / NRS 56 / VISA, Staphylococcus aureus NRS56, MRSA/VISA
  MIC: 1 µg/mL (≈ 2.21 µM)
[8]; Staphylococcus aureus, MRSA / NRS 71, Staphylococcus aureus NRS71, MRSA
  MIC: 1 µg/mL (≈ 2.21 µM)
[8]; Staphylococcus aureus, MRSA / NRS 100, Staphylococcus aureus COL, NRS100, MRSA
  MIC: ≤ 0.0312 µg/mL
[8]; Staphylococcus aureus, MRSA / NRS 119, Staphylococcus aureus NRS119, MRSA LZD-NS
  MIC: 1 µg/mL (≈ 2.21 µM)
[8]; Staphylococcus aureus, MRSA / NRS 123 / USA400, Staphylococcus aureus NRS123, USA400 MRSA
  MIC: ≤ 0.0312 µg/mL
[8]; Staphylococcus aureus, MRSA / NRS 127, Staphylococcus aureus NRS127, MRSA LZD-NS
  MIC: 4 µg/mL (≈ 8.82 µM)
[8]; Staphylococcus aureus, MRSA / NRS 269, Staphylococcus aureus NRS269, MRSA TGC-NS
  MIC: 2 µg/mL (≈ 4.41 µM)
[8]; Staphylococcus aureus, MRSA / NRS 271, Staphylococcus aureus E-MRSA 15, NRS271, MRSA LZD-NS
  MIC: 0.5 µg/mL (≈ 1.1 µM)
[8]; Staphylococcus aureus, MRSA / NRS 382 / USA100, Staphylococcus aureus NRS382, USA100 MRSA
  MIC: 0.5 µg/mL (≈ 1.1 µM)
[8]; Staphylococcus aureus, MRSA / NRS 383 / USA200, Staphylococcus aureus NRS383, USA200 MRSA TIG-NS
  MIC: 1 µg/mL (≈ 2.21 µM)
[8]; Staphylococcus aureus, MRSA / NRS 384 / USA300, Staphylococcus aureus NRS384, USA300 MRSA
  MIC: ≤ 0.0312 µg/mL
[8]; Staphylococcus aureus, MRSA / NRS 385 / USA500, Staphylococcus aureus NRS385, USA500 MRSA
  MIC: 0.5 µg/mL (≈ 1.1 µM)
[8]; Staphylococcus aureus, MRSA / NRS 386 / USA700, Staphylococcus aureus NRS386, USA700 MRSA
  MIC: 0.25 µg/mL (≈ 0.551 µM)
[8]; Staphylococcus aureus, MRSA / NRS 387 / USA800, Staphylococcus aureus NRS387, USA800 MRSA
  MIC: ≤ 0.0312 µg/mL
[8]; Staphylococcus aureus, MRSA / NRS 402 / VISA, Staphylococcus aureus NRS402, MRSA/VISA DAP-NS
  MIC: 1 µg/mL (≈ 2.21 µM)
[8]; Staphylococcus aureus, MRSA / NRS 483, Staphylococcus aureus NRS483, USA1000 MRSA
  MIC: ≤ 0.0312 µg/mL

— patent US11746116B2, “Antibiotic resistance breakers” (KING'S COLLEGE LONDON, priority 2017, dated 2023)
